test system: DOHH2 cells; assay: Cell proliferation assay in DOHH2 cells (MTS); type: cell-based; settings: Homo sapiens, DOHH-2, 120 h
Experimental: To investigate whether a compound is able to inhibit the activity of BTK in cells, a mechanism-based assay using DOHH2 (DSMZ catalog #: ACC47) cell was developed. In this assay, inhibition of BTK was detected by the inhibition of DOHH2 cells proliferation. Cells were collected and plated onto 96-well plates at the optimized cell density (5000 cells/well). Plates were incubated at 37° C., with 5% CO2 for 4 h. Compounds were serially diluted and added to the plates with the final concentrations as 10000, 3333.3, 1111.1, 370.4, 123.5, 41.2, 13.7, 4.6 and 1.5 nM. Plates were incubated at 37° C., with 5% CO2 for 120 h. An aliquot of 20 μL MTS/100 μL medium mixture solution were added to each well and the plates were incubated for exactly 2 h. The reaction was stopped by adding 25 μL 10% SDS to each well. The absorbance was measured by a microplate reader at 490 nm and 650 nm (reference wavelength). IC50 was calculated using GraphPad Prism 5.0.
Select compounds prepared as described above were assayed according to the biological procedures described herein.

| SMILES | IC50 [nM] |
| --- | --- |
| CCOc1cnc2[nH]cc(C(=O)c3c(C)cc(Oc4ccccc4F)cc3F)c2c1N[C@@H]1CC[C@@H](CO)OC1 [Example 135, (5-ethoxy-4-(((3R,6S)-6-(hydroxymethyl)tetrahydro-2H-pyran-3-yl)amino)-1H-pyrrolo[2,3-b]pyridin-3-yl)(2-fluoro-4-(2-fluorophenoxy)-6-methylphenyl)methanone] | 1 |
| COc1cnc2[nH]cc(C(=O)c3ccc(Oc4ccccc4F)cc3F)c2c1N[C@@H]1CC[C@@H](CNC(C)=O)OC1 [Example 160, N-(((2S,5R)-5-((3-(2-fluoro-4-(2-fluorophenoxy)benzoyl)-5-methoxy-1H-pyrrolo[2,3-b]pyridin-4-yl)amino)tetrahydro-2H-pyran-2-yl)methyl)acetamide] | 1 |
| COc1cnc2[nH]cc(C(=O)c3ccc(Oc4ccccc4F)cc3F)c2c1N[C@@H]1CC[C@@H](CNS(C)(=O)=O)OC1 [Example 161, N-(((2S,5R)-5-((3-(2-fluoro-4-(2-fluorophenoxy)benzoyl)-5-methoxy-1H-pyrrolo[2,3-b]pyridin-4-yl)amino)tetrahydro-2H-pyran-2-yl)methyl)methanesulfonamide] | 14 |
| COC(=O)NC[C@@H]1CC[C@@H](Nc2c(OC)cnc3[nH]cc(C(=O)c4ccc(Oc5ccccc5F)cc4F)c23)CO1 [Example 163, methyl (((2S,5R)-5-((3-(2-fluoro-4-(2-fluorophenoxy)benzoyl)-5-methoxy-1H-pyrrolo[2,3-b]pyridin-4-yl)amino)tetrahydro-2H-pyran-2-yl)methyl)carbamate] | 45 |
| COc1cnc2[nH]cc(C(=O)c3ccc(Oc4ccccc4F)cc3F)c2c1N[C@@H]1CCC(CO)(CO)OC1 [Example 164, (R)-(4-((6,6-bis(hydroxymethyl)tetrahydro-2H-pyran-3-yl)amino)-5-methoxy-1H-pyrrolo[2,3-b]pyridin-3-yl)(2-fluoro-4-(2-fluorophenoxy)phenyl)methanone] | 22 |
| COc1cnc2[nH]cc(C(=O)c3ccc(Oc4ccccc4)cc3)c2c1N[C@@H]1CC[C@@H](CO)OC1 [Example 177, (4-(((3R,6S)-6-(hydroxymethyl)tetrahydro-2H-pyran-3-yl)amino)-5-methoxy-1H-pyrrolo[2,3-b]pyridin-3-yl)(4-phenoxyphenyl)methanone] | 9 |
| CCOc1cnc2[nH]cc(C(=O)c3ccc(Oc4ccccc4)cc3)c2c1N[C@@H]1CC[C@@H](CO)OC1 [Example 178, (5-ethoxy-4-(((3R,6S)-6-(hydroxymethyl)tetrahydro-2H-pyran-3-yl)amino)-1H-pyrrolo[2,3-b]pyridin-3-yl)(4-phenoxyphenyl)methanone] | 15 |
| O=C(c1ccc(Oc2c(F)cccc2F)cc1)c1c[nH]c2ncc(F)c(N[C@@H]3CC[C@@H](CO)OC3)c12 [Example 183, (4-(2,6-difluorophenoxy)phenyl)(5-fluoro-4-(((3R,6S)-6-(hydroxymethyl)tetrahydro-2H-pyran-3-yl)amino)-1H-pyrrolo[2,3-b]pyridin-3-yl)methanone] | 17 |
| COc1cnc2[nH]cc(C(=O)c3ccc(Oc4c(F)cccc4F)cc3)c2c1N[C@@H]1CC[C@@H](CO)OC1 [Example 184, (4-(2,6-difluorophenoxy)phenyl)(4-(((3R,6S)-6-(hydroxymethyl)tetrahydro-2H-pyran-3-yl)amino)-5-methoxy-1H-pyrrolo[2,3-b]pyridin-3-yl)methanone] | 1 |
| Cc1cc(Oc2c(F)cccc2F)ccc1C(=O)c1c[nH]c2ncc(F)c(N[C@@H]3CC[C@@H](CO)OC3)c12 [Example 185, (4-(2,6-difluorophenoxy)-2-methylphenyl)(5-fluoro-4-(((3R,6S)-6-(hydroxymethyl)tetrahydro-2H-pyran-3-yl)amino)-1H-pyrrolo[2,3-b]pyridin-3-yl)methanone] | 14 |
| COc1cnc2[nH]cc(C(=O)c3ccc(Oc4c(F)cccc4F)cc3Cl)c2c1N[C@@H]1CC[C@@H](CO)OC1 [Example 186, (2-chloro-4-(2,6-difluorophenoxy)phenyl)(4-(((3R,6S)-6-(hydroxymethyl)tetrahydro-2H-pyran-3-yl)amino)-5-methoxy-1H-pyrrolo[2,3-b]pyridin-3-yl)methanone] | 17 |
| O=C(c1ccc(Oc2c(F)cccc2F)cc1Cl)c1c[nH]c2ncc(F)c(N[C@@H]3CC[C@@H](CO)OC3)c12 [Example 187, (2-chloro-4-(2,6-difluorophenoxy)phenyl)(5-fluoro-4-(((3R,6S)-6-(hydroxymethyl)tetrahydro-2H-pyran-3-yl)amino)-1H-pyrrolo[2,3-b]pyridin-3-yl)methanone] | 52 |
| COc1cnc2[nH]cc(C(=O)c3ccc(Oc4c(F)cccc4F)cc3C)c2c1N[C@@H]1CC[C@@H](CO)OC1 [Example 188, (4-(2,6-difluorophenoxy)-2-methylphenyl)(4-(((3R,6S)-6-(hydroxymethyl)tetrahydro-2H-pyran-3-yl)amino)-5-methoxy-1H-pyrrolo[2,3-b]pyridin-3-yl)methanone] | 4 |
| O=C(c1ccc(Oc2c(F)cccc2F)cc1Cl)c1c[nH]c2ncc(Cl)c(N[C@@H]3CC[C@@H](CO)OC3)c12 [Example 189, (5-chloro-4-(((3R,6S)-6-(hydroxymethyl)tetrahydro-2H-pyran-3-yl)amino)-1H-pyrrolo[2,3-b]pyridin-3-yl)(2-chloro-4-(2,6-difluorophenoxy)phenyl)methanone] | 32 |
| O=C(c1ccc(Oc2c(F)cccc2F)cc1)c1c[nH]c2ncc(Cl)c(N[C@@H]3CC[C@@H](CO)OC3)c12 [Example 190, (5-chloro-4-(((3R,6S)-6-(hydroxymethyl)tetrahydro-2H-pyran-3-yl)amino)-1H-pyrrolo[2,3-b]pyridin-3-yl)(4-(2,6-difluorophenoxy)phenyl)methanone] | 11 |
| COc1cnc2[nH]cc(C(=O)c3ccc(Oc4ccccc4)cc3F)c2c1N[C@@H]1CC[C@@H](CO)OC1 [Example 191, (2-fluoro-4-phenoxyphenyl)(4-(((3R,6S)-6-(hydroxymethyl)tetrahydro-2H-pyran-3-yl)amino)-5-methoxy-1H-pyrrolo[2,3-b]pyridin-3-yl)methanone] | 1 |
| COc1cnc2[nH]cc(C(=O)c3ccc(Oc4c(F)cccc4F)cc3F)c2c1N[C@@H]1CC[C@@H](CO)OC1 [Example 192, (4-(2,6-difluorophenoxy)-2-fluorophenyl)(4-(((3R,6S)-6-(hydroxymethyl)tetrahydro-2H-pyran-3-yl)amino)-5-methoxy-1H-pyrrolo[2,3-b]pyridin-3-yl)methanone] | 8 |
| COc1cnc2[nH]cc(C(=O)c3c(F)cc(Oc4c(F)cccc4F)cc3F)c2c1N[C@@H]1CC[C@@H](CO)OC1 [Example 193, (4-(2,6-difluorophenoxy)-2,6-difluorophenyl)(4-(((3R,6S)-6-(hydroxymethyl)tetrahydro-2H-pyran-3-yl)amino)-5-methoxy-1H-pyrrolo[2,3-b]pyridin-3-yl)methanone] | 12 |
| COc1cnc2[nH]cc(C(=O)c3c(F)cc(Oc4ccccc4F)cc3F)c2c1N[C@@H]1CC[C@@H](CO)OC1 [Example 194, (2,6-difluoro-4-(2-fluorophenoxy)phenyl)(4-(((3R,6S)-6-(hydroxymethyl)tetrahydro-2H-pyran-3-yl)amino)-5-methoxy-1H-pyrrolo[2,3-b]pyridin-3-yl)methanone] | 26 |
| COc1cnc2[nH]cc(C(=O)c3ccc(Oc4ncccc4F)cc3F)c2c1N[C@@H]1CC[C@@H](CO)OC1 [Example 195] | 83 |
| COc1cnc2[nH]cc(C(=O)c3ccc(Oc4ccccn4)cc3F)c2c1N[C@@H]1CC[C@@H](CO)OC1 [Example 196, (2-fluoro-4-(pyridin-2-yloxy)phenyl)(4-(((3R,6S)-6-(hydroxymethyl)tetrahydro-2H-pyran-3-yl)amino)-5-methoxy-1H-pyrrolo[2,3-b]pyridin-3-yl)methanone] | 44 |
| COc1cnc2[nH]cc(C(=O)c3c(F)cc(Oc4ccccn4)cc3F)c2c1N[C@@H]1CC[C@@H](CO)OC1 [Example 198, (2,6-difluoro-4-(pyridin-2-yloxy)phenyl)(4-(((3R,6S)-6-(hydroxymethyl)tetrahydro-2H-pyran-3-yl)amino)-5-methoxy-1H-pyrrolo[2,3-b]pyridin-3-yl)methanone] | 52 |

Source: patent publication US20220235049A1, “SUBSTITUTED PYRROLO [2, 3-b] PYRIDINE AND PYRAZOLO [3,4-b] PYRIDINE DERIVATIVES AS PROTEIN KINASE INHIBITORS” (Fochon Pharmaceuticals, Ltd., priority 2019, published 2022)
